Reference: patent US9938240B2, “Fluorinated derivatives of 3-hydroxypyridin-4-ones” (Apotex Technologies Inc., priority 2009, dated 2018)

Legend:
[1] = system: SH-SY5Y human neuroblastoma cells; settings: for CC2 (cytotoxic concentration): H2O2-treated cells, viability below 80%; for CC1 (cytotoxic concentration): absence of H2O2, viability below 80%
Source text: Hydrogen peroxide (H2O2) is a major ROS (reactive oxidative species), which causes oxidative stress, and can induce apoptosis in many different cell types. One of the CNS drug design strategies is to use compounds with antioxidant properties as a possible treatment of both acute and chronic neurodegenerative diseases (Kang et al. Bioorganic & Medicinal Chemistry Letters, 2004, 14, 2261-2264). This involves testing the compounds of this invention for their protective effect against oxidative stress-induced cell death in SH-SY5Y human neuroblastoma cells. SH-SY5Y human neuroblastoma cells were cultured in DMEM (ATCC)/F12 (Cellgro) with 10% FBS. The cells were plated at 30,000 cells/cm^2 and grown for 1 day in the regular culture media prior to compound addition. Cells were routinely treated with the test compound, at a pre-determined range of concentrations, in the presence or absence of 50 μM hydrogen peroxide in a basal medium containing no FBS for 16-22 h. Cell viability was then measured using the routine MTT method (Mosmann, T., Rapid Colorimetric Assay for Cellular Growth and Survival: Application to Proliferation and Cytotoxicity Assays”. J. Immunol. Meth. 1983, 65, 55-63).
For data analysis, cell viability relative to control not treated with either H2O2 or the test compound, was plotted against the compound concentration. […] Cytotoxicity of the test compound was assessed in the absence of hydrogen peroxide.

[2] = Distribution coefficient determination, D7.4 (1-octanol / K2HPO4 buffer); format: physicochemical; settings: 1-octanol / K2HPO4 buffer 50 mM pH 7.4; for logD: read-out: Log D7.4
Description: K2HPO4 buffer (50 mM, pH=7.4) and 1-octanol were used as the aqueous phase and the organic phase, respectively. The K2HPO4 buffer and 1-octanol were mixed, and pre-saturated with each other before use.
In a typical experiment, an aqueous solution of Apo6995 (3-hydroxy-2-methyl-1-(2,2,2-trifluoroethyl)pyridin-4(1H)-one) was prepared by weighing out 3 mg of the compound into a 10-mL test-tube. It was then mixed with K2HPO4 buffer (2 mL) and sonicated for 30 minutes with frequent vortexing. The solution was then filtered through HPLC syringe filter (4 mm PVDF syringe filter 0.45 μM) to obtain the aqueous solution.
One mL of this aqueous solution was pipetted out into another 10-mL test-tube and mixed with 1 mL of 1-octanol. The mixture was then vortexed for 1 hour. The solution was centrifuged at 2000 rpm for 10 minutes. A small amount of the lower aqueous layer was carefully pipetted out and analyzed by HPLC to obtain the peak height (HF). The distribution coefficient, D7.4, was calculated using the following equation: D7.4=(HI−HF)/HF.

[3] = system: human neuroblastoma MC-65 cells; assay: cells; settings: for EC100 / minimal effective concentration: Homo sapiens, MC65, 48 h; for EC100: read-out: EC100 (maximum effective concentration); for minimal effective concentration: read-out: TH (threshold protective concentration); for CC2 (cytotoxic concentration): MC-65, cultured without tetracycline; for CC2 (cytotoxic concentration) / CC1 (cytotoxic concentration): viability below 80%; for CC1 (cytotoxic concentration): MC-65, presence of TET
Description: In this assay, human neuroblastoma cells (MC-65 cells) are genetically engineered to conditionally express amyloid β peptide (Aβ). The Aβ production is suppressed by tetracycline (TET+) presence in culture medium, and its production is activated when TET is withdrawn (TET−). The activation of Aβ production results in cell death “MC-65 suicide”.
Protective effect of compounds against edogenously produced amyloid beta (Aβ) was assessed in human neuroblastoma MC-65 cells. MC-65 cells have been stably transformed to conditionally express high levels of a partial amyloid precursor (AP) fusion protein (Bryce Sopher et al., Brain Res Mol Brain Res. 1994, 207-17.). This protein is further proteolitically processed in the cells to form a set of AP-derived Aβ peptides. […] Activity of the promoter is tightly regulated by the presence of the antibiotic tetracycline (TET) in the culture medium. In the presence of TET (TET+), the promoter is in the basal state and no amyloid beta peptide is synthesized. In the absence of TET (TET−) the promoter is in induced state, resulting in the accumulation of Aβ peptides in the cells, degenerative changes in cell morphology and decreased survival.
Transfected human neuroblastoma cells (MC-65) were cultured in DMEM (ATCC) supplemented with non-essential amino acids and 10% FBS (VWR) in the presence of TET (1 μg/mL). For the experiment, the cells were plated at 35,000 cells/cm^2 and grown for 1 day in the regular culture media prior to compound addition. On the day of the assay, culture supernatant was removed from the wells and cells were thoroughly washed once with the compound incubation matrix containing no FBS and no TET. MC-65 cells were treated with a test compound at pre-determined range of concentrations in a basal medium containing no FBS and in the absence or presence of 1 μg/mL TET for approximately 48 h. Cell viability was then measured using the MTT method.
For data analysis, cell viabilities relative to the control not treated with a test compound and maintained in the presence of TET were plotted against the compound concentration. […] Cytotoxicity of the test compound was assessed in the cells maintained in the presence of TET.

[4] = Oral cassette dosing PK/BBB studies; format: in vivo, male Sprague-Dawley rats; settings: oral cassette dosing, male Sprague-Dawley rats; for AUC brain* / AUC: AUC normalized to 1 mg/kg dose; for Kp / AUC: rat; for Kp: brain and plasma, read-out: AUC brain/AUC plasma; for AUC: plasma
Description: In-vivo pharmacokinetic (PK) and blood brain barrier (BBB) studies were conducted in male Sprague-Dawley rats using cassette dosing via oral administration. […] No. 15, pp. 652-658.

| Compound | CC2 (cytotoxic concentration) [1] [µM] | CC1 (cytotoxic concentration) [1] [µM] | D7.4 [2] | logD [2] | EC100 [3] [µM] | minimal effective concentration [3] [µM] | CC2 (cytotoxic concentration) [3] [µM] | CC1 (cytotoxic concentration) [3] [µM] | AUC brain* [4] [ng·h/mL] | Kp [4] | AUC [4] [ng·h/mL] | Log D7.4 [2] |
| --- | --- | --- | --- | --- | --- | --- | --- | --- | --- | --- | --- | --- |
| Cc1cc(=O)c(O)c(CN(C)C)n1CC(F)(F)F [Apo7065, 2-[(dimethylamino)methyl]-3-hydroxy-6-methyl-1-(2,2,2-trifluoroethyl)pyridin-4(1H)-one] | >640 | 40 | 4.93 | 0.69 | – | – | – | – | – | – | – | – |
| CN(C)C(c1c(O)c(=O)c(Cl)cn1C)C(F)(F)F (centres unmarked) [Apo7060, 5-chloro-2-[1-(dimethylamino)-2,2,2-trifluoroethyl]-3-hydroxy-1-methylpyridin-4(1H)-one] | >640 | 80 | 4.93 | 0.69 | 10 | 1 | 20 | 40 | – | – | – | – |
| Cc1cc(=O)c(O)c(CN(C)C)n1CC(F)F [Apo7083, 1-(2,2-difluoroethyl)-2-[(dimethylamino)methyl]-3-hydroxy-6-methylpyridin-4(1H)-one] | – | – | 1.70 | 0.23 | 10 | 0.1 | 40 | 40 | – | – | – | – |
| Cc1c(O)c(=O)ccn1CC(F)(F)F [Apo6995, 3-hydroxy-2-methyl-1-(2,2,2-trifluoroethyl)pyridin-4(1H)-one] | 320 | 320 | 2.51 | 0.4 | 20 | 0.1 | 80 | 80 | 300 | 1.2 | 260 | – |
| Oc1c(I)cc(Cl)c2cccnc12 [Clioquinol, reference compound] | – | – | – | – | – | – | – | – | 42 | 1.5 | 28 | – |
| Cc1c(O)c(=O)ccn1CC(F)F [Apo7069, 1-(2,2-difluoroethyl)-3-hydroxy-2-methylpyridin-4(1H)-one] | >640 | 80 | 0.66 | – | 40 | 0.1 | 80 | 80 | – | – | – | −0.18 |
| Cn1ccc(=O)c(O)c1CC(F)F [Apo7080, 2-(2,2-difluoroethyl)-3-hydroxy-1-methylpyridin-4(1H)-one] | >640 | 40 | – | – | 10 | 0.1 | 40 | 40 | 700 | 0.76 | 920 | – |
| Cc1c(Cl)c(=O)c(O)c(CC(F)(F)F)n1C [Apo7040, 3-chloro-5-hydroxy-1,2-dimethyl-6-(2,2,2-trifluoroethyl)pyridin-4(1H)-one] | >640 | 160 | 8.76 | 0.94 | 40 | 1 | 80 | 40 | – | – | – | – |
| C=CCNC(c1c(O)c(=O)ccn1C)C(F)(F)F (centres unmarked) [Apo7075, 3-hydroxy-1-methyl-2-[2,2,2-trifluoro-1-(prop-2-en-1-ylamino)ethyl]pyridin-4(1H)-one] | >640 | 20 | – | – | 10 | 0.1 | 20 | 10 | – | – | – | – |
| CN(C)Cc1cc(=O)c(O)c(CC(F)(F)F)n1C [Apo7021, 6-[(dimethylamino)methyl]-3-hydroxy-1-methyl-2-(2,2,2-trifluoroethyl)pyridin-4(1H)-one] | >640 | 80 | – | – | 10 | 0.1 | 20 | 10 | – | – | – | – |
| Cn1ccc(=O)c(O)c1C(C(F)F)N1CCCCC1 (centres unmarked) [Apo7319, 2-(2,2-difluoro-1-(piperidin-1-yl)ethyl)-3-hydroxy-1-methylpyridin-4(1H)-one] | 320 | 320 | – | – | 10 | 1 | 40 | 40 | – | – | – | – |
| Cn1ccc(=O)c(O)c1C(N1CCCCC1)C(F)(F)F (centres unmarked) [Apo7058, 3-hydroxy-1-methyl-2-[2,2,2-trifluoro-1-(piperidin-1-yl)ethyl]pyridin-4(1H)-one] | >640 | 20 | – | – | 10 | 1 | 80 | 10 | – | – | – | – |
| Cn1cc(Cl)c(=O)c(O)c1CC(F)(F)F [Apo7066, 5-chloro-3-hydroxy-1-methyl-2-(2,2,2-trifluoroethyl)pyridin-4(1H)-one] | 160 | 160 | 4.69 | 0.67 | 10 | 0.1 | 80 | 80 | – | – | – | – |
| Cc1cc(=O)c(O)c(C(N2CCN(c3ccccn3)CC2)C(F)(F)F)n1C (centres unmarked) [Apo7336, 3-hydroxy-1,6-dimethyl-2-(2,2,2-trifluoro-1-(4-(pyridin-2-yl)piperazin-1-yl)ethyl)pyridin-4(1H)-one] | 80 | 80 | – | – | 10 | 1 | 20 | 10 | – | – | – | – |
| Cc1cc(=O)c(O)c(CN2CCCCC2)n1CC(F)(F)F [Apo7071, 3-hydroxy-6-methyl-2-(piperidin-1-ylmethyl)-1-(2,2,2-trifluoroethyl)pyridin-4(1H)-one] | 80 | 20 | – | – | 10 | 1 | 20 | 40 | – | – | – | – |
| Cc1c(O)c(=O)c(C(n2ccnc2)C(F)(F)F)cn1C (centres unmarked) [Apo7055, 3-Hydroxy-1,2-dimethyl-5-[2,2,2-trifluoro-1-(1H-imidazol-1-yl)ethyl]pyridin-4(1H)-one] | >640 | 10 | – | – | 20 | 1 | 40 | 40 | – | – | – | – |
